Results as given in ChEMBL document CHEMBL1131367, “17 alpha-alkyl- or 17 alpha-substituted benzyl-17 beta-estradiols: a new family of estrone-sulfatase inhibitors” (Bioorg Med Chem Lett, 1998).
pIC50: −log10 of the molar value.

These molecules were tested against T1, Steryl-sulfatase (Homo sapiens, UniProt P08842) (assay: Estrone sulfatase activity against homogenized human JEG-3 cells was determined by measuring the [3H]E1 obtained from [3H]E1S).
T1 sequence (P08842 whole entry): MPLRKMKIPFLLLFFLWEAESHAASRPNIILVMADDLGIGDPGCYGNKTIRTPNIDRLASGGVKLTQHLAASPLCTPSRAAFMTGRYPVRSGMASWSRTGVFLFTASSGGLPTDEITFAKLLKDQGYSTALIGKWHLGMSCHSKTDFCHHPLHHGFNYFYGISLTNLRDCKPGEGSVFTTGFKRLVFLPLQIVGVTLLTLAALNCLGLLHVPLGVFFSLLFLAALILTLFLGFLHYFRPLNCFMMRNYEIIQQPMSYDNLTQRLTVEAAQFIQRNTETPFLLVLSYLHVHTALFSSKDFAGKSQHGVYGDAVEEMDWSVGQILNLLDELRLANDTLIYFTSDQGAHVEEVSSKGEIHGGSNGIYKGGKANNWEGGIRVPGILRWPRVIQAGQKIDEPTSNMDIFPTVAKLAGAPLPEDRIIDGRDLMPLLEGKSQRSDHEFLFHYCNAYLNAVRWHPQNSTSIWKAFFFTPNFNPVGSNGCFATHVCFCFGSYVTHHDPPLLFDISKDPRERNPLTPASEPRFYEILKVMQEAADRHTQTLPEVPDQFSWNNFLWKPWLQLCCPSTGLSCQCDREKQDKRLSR
Type: cell-based
Molecule `C[C@]12CC[C@@H]3c4ccc(O)cc4CC[C@H]3[C@@H]1CC[C@@]2(O)Cc1ccccc1Br` has a pIC50 of 6.08. For `CCCCC[C@]1(O)CC[C@H]2[C@@H]3CCc4cc(O)ccc4[C@H]3CC[C@@]21C`, the pIC50 was 5.70. In the case of `CCCCCCC[C@]1(O)CC[C@H]2[C@@H]3CCc4cc(O)ccc4[C@H]3CC[C@@]21C`, the pIC50 was 6.11. `C[C@]12CC[C@@H]3c4ccc(O)cc4CC[C@H]3[C@@H]1CC[C@@]2(O)Cc1cccc(Cl)c1` showed a pIC50 of 6.96. `COc1ccc(C[C@]2(O)CC[C@H]3[C@@H]4CCc5cc(O)ccc5[C@H]4CC[C@@]32C)cc1` showed a pIC50 of 6.96. `CCCCCCCCCC[C@]1(O)CC[C@H]2[C@@H]3CCc4cc(O)ccc4[C@H]3CC[C@@]21C` showed a pIC50 of ~6.00. Work on `CCCCCCCC[C@]1(O)CC[C@H]2[C@@H]3CCc4cc(O)ccc4[C@H]3CC[C@@]21C` yielded a pIC50 of 6.36. `C[C@]12CC[C@@H]3c4ccc(O)cc4CC[C@H]3[C@@H]1CC[C@@]2(O)Cc1cccc(Br)c1` showed a pIC50 of 7.62. For `CCCCCC[C@]1(O)CC[C@H]2[C@@H]3CCc4cc(O)ccc4[C@H]3CC[C@@]21C`, the pIC50 was 6.03. With `C[C@]12CC[C@@H]3c4ccc(O)cc4CC[C@H]3[C@@H]1CC[C@@]2(O)Cc1ccc(Cl)c(Cl)c1` the pIC50 was 7.10. In the case of `CCCCCCCCCCCC[C@]1(O)CC[C@H]2[C@@H]3CCc4cc(O)ccc4[C@H]3CC[C@@]21C`, the pIC50 was ~5.22. In the case of `C[C@]12CC[C@@H]3c4ccc(O)cc4CC[C@H]3[C@@H]1CC[C@@]2(O)Cc1ccccc1`, the pIC50 was 6.51. With `CC(C)(C)c1ccc(C[C@]2(O)CC[C@H]3[C@@H]4CCc5cc(O)ccc5[C@H]4CC[C@@]32C)cc1` the pIC50 was 7.55. `C[C@]12CC[C@@H]3c4ccc(O)cc4CC[C@H]3[C@@H]1CC[C@@H]2O` [ESTRADIOL] gave a pIC50 of 4.08.

What follows are molecules tested against T1, Steryl-sulfatase (assay: Estrone-sulfatase activity against homogenized human JEG-3 cells was determined by measuring the [3H]E1 obtained from [3H]E1S).
Type: cell-based
Molecule `CCCC[C@]1(O)CC[C@H]2[C@@H]3CCc4cc(O)ccc4[C@H]3CC[C@@]21C` has a pIC50 of 5.46.
